# Measurements published in US12415794B2 (Edgewise Therapeutics, Inc., priority 2018, dated 2025).
# Legend:
# [1] = target: skeletal myofibrils (myosin ATPase); test: Skeletal Myofibril ATPase Assay; type: biochemical
# Summary of the method: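 Rates of NADH loss (A340, kinetic read over 45 min) report ADP generation by myofibrillar myosin, coupled through pyruvate kinase and lactate dehydrogenase; pCa buffer at pH 7.0. IC50 fitted by 4-parameter logistic after normalizing to 1% DMSO controls; cardiac myofibrils served for selectivity.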
# [2] = target: T1, cardiac myofibrils (myosin ATPase); test: Cardiac Myofibril ATPase Assay (counter screen); type: biochemical; conditions: myofibrils 1.0 mg/mL, KCl omitted
# T1 construct: frozen myofibril pellets obtained from cardiac tissue; from tissue
# Summary of the method: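 Myosin ATPase rate followed via NADH disappearance at 340 nm, coupled through pyruvate kinase and lactate dehydrogenase, using cardiac myofibril pellets (final 1.0 mg/mL) without KCl. IC50 values reflect rate reduction compared with vehicle-treated wells.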
# [3] = test system: embryos from zebrafish model of DMD; conditions: Li and Amer, PLoSONE, 2015; cited from earlier work
# T1 sequence (P12883 whole entry): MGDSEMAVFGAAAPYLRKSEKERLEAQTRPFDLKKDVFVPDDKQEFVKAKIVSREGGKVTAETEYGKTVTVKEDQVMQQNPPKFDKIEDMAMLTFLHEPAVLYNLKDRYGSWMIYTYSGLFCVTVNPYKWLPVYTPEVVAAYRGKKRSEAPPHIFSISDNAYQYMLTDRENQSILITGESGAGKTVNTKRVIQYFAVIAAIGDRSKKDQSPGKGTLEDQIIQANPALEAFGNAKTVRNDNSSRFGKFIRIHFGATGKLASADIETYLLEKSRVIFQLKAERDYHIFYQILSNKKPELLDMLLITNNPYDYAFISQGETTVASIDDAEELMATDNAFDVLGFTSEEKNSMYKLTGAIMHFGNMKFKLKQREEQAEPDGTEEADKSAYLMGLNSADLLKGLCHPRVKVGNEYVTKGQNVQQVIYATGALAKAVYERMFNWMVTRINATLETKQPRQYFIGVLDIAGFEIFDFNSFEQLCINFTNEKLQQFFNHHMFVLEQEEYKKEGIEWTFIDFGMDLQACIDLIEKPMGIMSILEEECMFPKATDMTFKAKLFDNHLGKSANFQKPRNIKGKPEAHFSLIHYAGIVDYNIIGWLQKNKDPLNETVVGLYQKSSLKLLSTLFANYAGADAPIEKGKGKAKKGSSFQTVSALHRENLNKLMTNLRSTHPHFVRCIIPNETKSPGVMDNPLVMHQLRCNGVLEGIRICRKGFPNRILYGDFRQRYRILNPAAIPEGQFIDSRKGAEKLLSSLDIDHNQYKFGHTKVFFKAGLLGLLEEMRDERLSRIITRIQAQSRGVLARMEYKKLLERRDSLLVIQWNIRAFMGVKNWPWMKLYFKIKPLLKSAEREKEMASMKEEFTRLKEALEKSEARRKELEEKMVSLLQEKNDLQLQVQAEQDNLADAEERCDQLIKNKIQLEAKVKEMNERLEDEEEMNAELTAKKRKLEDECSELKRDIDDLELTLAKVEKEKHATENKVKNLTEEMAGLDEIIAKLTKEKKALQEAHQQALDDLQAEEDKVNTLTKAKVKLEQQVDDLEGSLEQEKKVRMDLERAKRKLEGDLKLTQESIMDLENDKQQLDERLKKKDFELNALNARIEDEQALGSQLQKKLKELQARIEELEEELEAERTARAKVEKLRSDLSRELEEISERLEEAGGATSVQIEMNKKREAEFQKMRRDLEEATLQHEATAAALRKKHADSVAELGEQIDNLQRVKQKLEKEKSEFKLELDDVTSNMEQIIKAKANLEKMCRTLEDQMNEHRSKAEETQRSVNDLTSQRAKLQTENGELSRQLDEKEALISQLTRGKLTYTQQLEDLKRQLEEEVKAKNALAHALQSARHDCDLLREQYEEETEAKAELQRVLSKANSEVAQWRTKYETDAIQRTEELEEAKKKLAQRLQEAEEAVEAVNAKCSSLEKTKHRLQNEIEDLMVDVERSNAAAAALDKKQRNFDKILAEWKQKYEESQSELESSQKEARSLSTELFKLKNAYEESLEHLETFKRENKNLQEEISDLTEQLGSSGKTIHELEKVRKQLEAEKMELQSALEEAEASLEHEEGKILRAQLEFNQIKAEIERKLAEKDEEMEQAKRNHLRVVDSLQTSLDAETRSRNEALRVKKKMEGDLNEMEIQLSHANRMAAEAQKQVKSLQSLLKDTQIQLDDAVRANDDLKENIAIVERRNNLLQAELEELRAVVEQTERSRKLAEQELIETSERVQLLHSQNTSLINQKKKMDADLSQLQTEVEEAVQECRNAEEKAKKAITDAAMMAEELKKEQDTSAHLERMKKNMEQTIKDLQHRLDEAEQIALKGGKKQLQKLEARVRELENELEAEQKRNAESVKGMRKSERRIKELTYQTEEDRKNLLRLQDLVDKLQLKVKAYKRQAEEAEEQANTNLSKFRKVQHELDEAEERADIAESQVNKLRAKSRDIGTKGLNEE
# T1 sequence (P08590 whole entry partner): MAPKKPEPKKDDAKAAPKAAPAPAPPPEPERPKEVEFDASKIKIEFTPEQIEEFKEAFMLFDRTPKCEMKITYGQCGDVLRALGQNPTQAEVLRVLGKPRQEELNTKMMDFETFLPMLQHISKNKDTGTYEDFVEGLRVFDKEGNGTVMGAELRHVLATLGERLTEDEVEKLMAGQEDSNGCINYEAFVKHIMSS
# T1 sequence (P10916 whole entry partner): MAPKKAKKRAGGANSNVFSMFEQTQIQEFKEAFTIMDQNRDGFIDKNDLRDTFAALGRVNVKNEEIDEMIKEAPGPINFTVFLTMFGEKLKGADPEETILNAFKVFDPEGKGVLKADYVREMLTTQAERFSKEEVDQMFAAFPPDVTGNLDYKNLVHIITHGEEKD
Compound,IC50 ([1]; Table 4C),IC50 ([2]; Table 5C),IC50 ([1]; Table 4A),IC50 ([2]; Table 5A),protection of muscles from pathological muscle derangement [3]
"O=C(Cn1nc(-c2ccc(Cl)cc2)ccc1=O)Nc1ccccc1Cl [IIIc-28, N-(2-chlorophenyl)-2-(3-(4-chlorophenyl)-6-oxopyridazin-1(6H)-yl)acetamide]",< 10 µM,10 to 100 µM,,,
"CC[C@H](C)NC(=O)Cn1nc(-c2ccc(Cl)cc2)ccc1=O [IIIc-30, (S)-N-(sec-butyl)-2-(3-(4-chlorophenyl)-6-oxopyridazin-1(6H)-yl)acetamide]",10 to 100 µM,> 100 µM,,,
"COc1ccc(NC(=O)Cn2nc(-c3ccc(F)cc3)ccc2=O)c(OC)c1 [IIIc-31, N-(2,4-dimethoxyphenyl)-2-(3-(4-fluorophenyl)-6-oxopyridazin-1(6H)-yl)acetamide]",10 to 100 µM,> 100 µM,,,
"CN(Cc1ccccc1)C(=O)Cn1nc(-c2ccc(Cl)cc2)ccc1=O [IIIc-32, N-benzyl-2-(3-(4-chlorophenyl)-6-oxopyridazin-1(6H)-yl)-N-methylacetamide]",10 to 100 µM,> 100 µM,,,
"CC(C)OCCCNC(=O)Cn1nc(-c2ccc(Cl)cc2)ccc1=O [IIIc-33, 2-(3-(4-chlorophenyl)-6-oxopyridazin-1(6H)-yl)-N-(3-isopropoxypropyl)acetamide]",10 to 100 µM,> 100 µM,,,
"CC(C)CNC(=O)Cn1nc(-c2ccc(Cl)cc2)ccc1=O [IIIc-35, 2-(3-(4-chlorophenyl)-6-oxopyridazin-1(6H)-yl)-N-isobutylacetamide]",10 to 100 µM,> 100 µM,,,
"O=C(Cn1nc(-c2ccc(Cl)cc2)ccc1=O)Nc1ccccc1Cl [IIIc-38, N-(2-chlorophenyl)-2-(3-(4-chlorophenyl)-6-oxopyridazin-1(6H)-yl)acetamide]",< 10 µM,> 100 µM,,,
"CC(C)NC(=O)Cn1nc(-c2ccc(Br)cc2)ccc1=O [IIIc-40, 2-(3-(4-bromophenyl)-6-oxopyridazin-1(6H)-yl)-N-isopropylacetamide]",10 to 100 µM,> 100 µM,,,
"O=C(Cn1nc(-c2ccc(F)cc2)ccc1=O)NCCc1c[nH]c2ccccc12 [IIIc-44, N-(2-(1H-indol-3-yl)ethyl)-2-(3-(4-fluorophenyl)-6-oxopyridazin-1(6H)-yl)acetamide]",10 to 100 µM,> 100 µM,,,
"O=C(Cn1nc(-c2ccccc2)ccc1=O)NCc1ccccc1Cl [IIIc-47, N-(2-chlorobenzyl)-2-(6-oxo-3-phenylpyridazin-1(6H)-yl)acetamide]",10 to 100 µM,> 100 µM,,,
"O=C(Cn1nc(-c2ccccc2)ccc1=O)NCCC1=CCCCC1 [IIIc-48, N-(2-(cyclohex-1-en-1-yl)ethyl)-2-(6-oxo-3-phenylpyridazin-1(6H)-yl)acetamide]",< 10 µM,> 100 µM,,,
"O=C(Cn1nc(-c2ccccc2)ccc1=O)Nc1ccc2[nH]ccc2c1 [IIIc-49, N-(1H-indol-5-yl)-2-(6-oxo-3-phenylpyridazin-1(6H)-yl)acetamide]",< 10 µM,> 100 µM,,,
"O=C(Cn1nc(-c2ccccc2)ccc1=O)Nc1cccc2[nH]ccc12 [IIIc-50, N-(1H-indol-4-yl)-2-(6-oxo-3-phenylpyridazin-1(6H)-yl)acetamide]",10 to 100 µM,> 100 µM,,,
"O=C(Cn1nc(-c2ccccc2)ccc1=O)NC1(c2ccccc2)CCC1 [IIIc-51, 2-(6-oxo-3-phenylpyridazin-1(6H)-yl)-N-(1-phenylcyclobutyl)acetamide]",< 10 µM,> 100 µM,,,
"O=C(Cn1nc(-c2ccccc2)ccc1=O)Nc1ccccc1C(F)(F)F [IIIc-52, 2-(6-oxo-3-phenylpyridazin-1(6H)-yl)-N-(2-(trifluoromethyl)phenyl)acetamide]",10 to 100 µM,> 100 µM,,,
"CC(CCNC(=O)Cn1nc(-c2ccccc2)ccc1=O)c1ccccc1 (stereo not shown) [IIIc-53, 2-(6-oxo-3-phenylpyridazin-1(6H)-yl)-N-(3-phenylbutyl)acetamide]",10 to 100 µM,> 100 µM,,,
"O=C(Cn1nc(-c2ccccc2)ccc1=O)Nc1ccc(Cl)cc1Cl [IIIc-54, N-(2,4-dichlorophenyl)-2-(6-oxo-3-phenylpyridazin-1(6H)-yl)acetamide]",10 to 100 µM,> 100 µM,,,
"Cc1ccc(S(=O)(=O)NCc2ccccc2)cc1 [N-benzyl-p-tolyl-sulfonamide (BTS), N-benzyl-p-tolyl-sulfonamide]",,,,,protect muscles from pathological muscle derangement
N-cyclobutyl-2-[3-[2-(2-methylpropoxy)pyrimidin-5-yl]-6-oxopyridazin-1-yl]acetamide [Compound I-79],,,> 100 µM,> 100 µM,

# More lines, main results first:
IC50 ([1]; Table 4C),IC50 ([2]; Table 5C),IC50 ([1]; Table 4A),IC50 ([2]; Table 5A),Compound,protection of muscles from pathological muscle derangement [3]
10 to 100 µM,> 100 µM,,,"CCC1CCC(CNC(=O)Cn2nc(-c3ccccc3)ccc2=O)CC1 (stereo not shown) [IIIc-55, N-((4-ethylcyclohexyl)methyl)-2-(6-oxo-3-phenylpyridazin-1(6H)-yl)acetamide]",
10 to 100 µM,> 100 µM,,,"O=C(Cn1nc(-c2ccccc2)ccc1=O)Nc1ccccc1Cl [IIIc-56, N-(2-chlorophenyl)-2-(6-oxo-3-phenylpyridazin-1(6H)-yl)acetamide]",
10 to 100 µM,> 100 µM,,,"CC[C@H](C)NC(=O)Cn1nc(-c2ccccc2)ccc1=O [IIIc-57, (S)-N-(sec-butyl)-2-(6-oxo-3-phenylpyridazin-1(6H)-yl)acetamide]",
10 to 100 µM,> 100 µM,,,"COc1ccccc1NC(=O)Cn1nc(-c2ccccc2)ccc1=O [IIIc-58, N-(2-methoxyphenyl)-2-(6-oxo-3-phenylpyridazin-1(6H)-yl)acetamide]",
> 100 µM,> 100 µM,,,"COc1ccc(Cl)cc1NC(=O)Cn1nc(-c2ccccc2)ccc1=O [IIIc-62, N-(5-chloro-2-methoxyphenyl)-2-(6-oxo-3-phenylpyridazin-1(6H)-yl)acetamide]",
> 100 µM,> 100 µM,,,"CC(C)NC(=O)Cn1nc(-c2ccccc2)ccc1=O [IIIc-63, N-isopropyl-2-(6-oxo-3-phenylpyridazin-1(6H)-yl)acetamide]",
> 100 µM,> 100 µM,,,"O=C(Cn1nc(-c2ccccc2)ccc1=O)Nc1ccc2c(c1)OCCO2 [IIIc-64, N-(2,3-dihydrobenzo[b][1,4]dioxin-6-yl)-2-(6-oxo-3-phenylpyridazin-1(6H)-yl)acetamide]",
> 100 µM,> 100 µM,,,"O=C(Cn1nc(-c2ccccc2)ccc1=O)NC1CC1 [IIIc-65, N-cyclopropyl-2-(6-oxo-3-phenylpyridazin-1(6H)-yl)acetamide]",
> 100 µM,> 100 µM,,,"O=C(Cn1nc(-c2ccccc2)ccc1=O)Nc1ccccc1F [IIIc-66, N-(2-fluorophenyl)-2-(6-oxo-3-phenylpyridazin-1(6H)-yl)acetamide]",
